Measurements: US20240261274A1, “TREATMENT OF MYC-DRIVEN CANCERS WITH GSPT1 DEGRADERS” (MONTE ROSA THERAPEUTICS, INC., priority 2021, published 2024)

Columns and labels:
[1] = target: T1, Full length wild-type cereblon CRBN (Homo sapiens, UniProt Q96SW2); assay: Fluorescence polarization (FP) assay indicating cereblon binding; settings: bound stated; read-out: IC50 value
T1 construct: Full length wild-type cereblon CRBN (80.0 nM, 10 μL) was incubated in assay buffer
Method in brief: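 Full-length wild-type CRBN at 80.0 nM was preincubated 30 min at room temperature with compound (12-point curve, 300–0.937 or 3000–9.3 nM) in 20 mM HEPES pH 8.0, 150 NaCl, 0.5 mM TCEP, 0.05% Tween 20. Cy5-type thalidomide-based probe added at 5 nM final; FP read after 12 h (ex 590/em 675 nm), normalized to DMSO, IC50 fitted.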

GSPT1 [2] = target: T2, GSPT1 (Homo sapiens, UniProt P15170+Q96SW2); assay: GSPT1 degradation immunofluorescence assay in CAL-51 cells; assay type: cell-based; design: endogenous in cells; host or cells: CAL-51 (DSMZ ACC302); settings: 6 hours, Table 4, read-out: Activity for GSPT1 degradation, Code (DC50)
Method in brief: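 CAL-51 cells on fibronectin treated 6 h with compound (typically 30 μM to 0.1 nM), then fixed, permeabilised and immunostained for GSPT1, with phalloidin and DAPI. High-content imaging gave mean GSPT1 intensity per segmented cell. DC50 from non-linear regression after normalisation to DMSO and CC-885 (10 μM) controls.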

GSPT1 [3] = target: T2, GSPT1; assay: GSPT1 levels in breast cancer tumors after compound 8 (western blotting); assay type: in vivo; design: endogenous in cells; settings: three consecutive doses at 37 and 75 mpk; tumors harvested 24 hr post third dose; MDA-MB-468, MDA-MB-231, MDA-MB-436, CAL51
Experimental: Representative examples below show the levels of GSPT1 in MDA-MB-468 (ATCC HTB-132), MDA-MB-231 (ATCC HTB-26), MDA-MB-436 (ATCC HTB-130) and CAL51 (DSMZ-ACC-302) tumors (in lanes from top down as indicated) following three consecutive doses of compound 8 at 37 (right panel) and 75 mpk (middle panel) or administration of vehicle only (left panel). GADPH levels as control is shown in the lowest lane. Tumors were harvested 24 hr post third dose and levels of GSPT1 were determined by western blotting as indicated. Tumors were collected from the in vivo efficacy studies described in the previous FIG. 7A.

T2 sequence (P15170 whole entry): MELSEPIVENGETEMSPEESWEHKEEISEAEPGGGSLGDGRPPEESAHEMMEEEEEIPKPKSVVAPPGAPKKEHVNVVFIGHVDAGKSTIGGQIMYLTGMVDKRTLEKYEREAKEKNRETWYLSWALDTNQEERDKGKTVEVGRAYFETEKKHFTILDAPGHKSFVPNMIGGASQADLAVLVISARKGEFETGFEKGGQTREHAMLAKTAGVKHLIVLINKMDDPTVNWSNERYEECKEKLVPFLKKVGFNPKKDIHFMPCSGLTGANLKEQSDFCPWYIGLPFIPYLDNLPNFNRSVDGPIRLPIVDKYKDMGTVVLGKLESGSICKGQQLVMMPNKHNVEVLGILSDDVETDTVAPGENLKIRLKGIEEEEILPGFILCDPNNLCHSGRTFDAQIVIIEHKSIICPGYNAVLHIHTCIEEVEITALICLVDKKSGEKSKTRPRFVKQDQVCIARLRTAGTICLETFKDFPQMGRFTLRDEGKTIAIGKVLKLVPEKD
T2 sequence (Q96SW2 whole entry): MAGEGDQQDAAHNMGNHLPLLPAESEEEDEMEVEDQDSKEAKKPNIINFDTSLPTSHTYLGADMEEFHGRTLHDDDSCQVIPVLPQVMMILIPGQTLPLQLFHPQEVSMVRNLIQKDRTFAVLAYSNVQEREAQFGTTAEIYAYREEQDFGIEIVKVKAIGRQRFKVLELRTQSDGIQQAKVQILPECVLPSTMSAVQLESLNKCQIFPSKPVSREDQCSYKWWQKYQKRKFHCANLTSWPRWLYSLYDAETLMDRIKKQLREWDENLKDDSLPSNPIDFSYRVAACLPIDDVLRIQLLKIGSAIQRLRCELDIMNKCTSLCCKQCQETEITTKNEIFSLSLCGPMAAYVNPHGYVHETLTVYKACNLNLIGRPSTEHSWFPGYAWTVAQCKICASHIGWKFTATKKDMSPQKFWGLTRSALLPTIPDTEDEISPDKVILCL
T2 sequence (Q16531 whole entry partner): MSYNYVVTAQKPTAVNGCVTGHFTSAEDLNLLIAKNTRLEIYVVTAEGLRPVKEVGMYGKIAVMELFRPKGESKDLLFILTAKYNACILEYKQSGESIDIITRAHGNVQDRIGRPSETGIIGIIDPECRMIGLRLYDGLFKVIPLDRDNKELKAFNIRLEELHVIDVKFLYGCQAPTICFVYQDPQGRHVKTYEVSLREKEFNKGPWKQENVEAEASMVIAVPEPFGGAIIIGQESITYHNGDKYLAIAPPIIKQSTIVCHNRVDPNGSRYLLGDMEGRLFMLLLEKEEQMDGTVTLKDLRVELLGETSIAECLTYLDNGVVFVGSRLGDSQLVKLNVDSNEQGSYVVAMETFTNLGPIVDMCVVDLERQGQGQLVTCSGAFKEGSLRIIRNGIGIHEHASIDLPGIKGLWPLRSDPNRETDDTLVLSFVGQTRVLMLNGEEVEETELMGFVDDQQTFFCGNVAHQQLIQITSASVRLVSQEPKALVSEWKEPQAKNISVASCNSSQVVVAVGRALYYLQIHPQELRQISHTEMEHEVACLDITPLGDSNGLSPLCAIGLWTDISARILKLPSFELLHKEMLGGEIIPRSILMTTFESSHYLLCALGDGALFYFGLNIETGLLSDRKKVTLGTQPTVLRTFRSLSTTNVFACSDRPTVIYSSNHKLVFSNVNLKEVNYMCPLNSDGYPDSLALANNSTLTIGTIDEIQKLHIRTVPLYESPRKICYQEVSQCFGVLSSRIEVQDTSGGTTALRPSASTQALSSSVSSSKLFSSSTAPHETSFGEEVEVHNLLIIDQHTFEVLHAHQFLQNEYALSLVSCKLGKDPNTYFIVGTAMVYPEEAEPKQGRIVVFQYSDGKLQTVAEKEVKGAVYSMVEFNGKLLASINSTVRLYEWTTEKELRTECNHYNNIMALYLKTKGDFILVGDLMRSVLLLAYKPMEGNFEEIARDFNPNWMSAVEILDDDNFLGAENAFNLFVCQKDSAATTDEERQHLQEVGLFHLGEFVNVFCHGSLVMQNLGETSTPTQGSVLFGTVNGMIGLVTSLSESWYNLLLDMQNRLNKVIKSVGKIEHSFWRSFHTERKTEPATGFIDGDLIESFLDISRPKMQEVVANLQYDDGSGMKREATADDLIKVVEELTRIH
T1 sequence (Q96SW2 whole entry): as the sequence (Q96SW2 whole entry) above

| Structure (SMILES) | IC50 [1] [nM] | DC50 (GSPT1 [2]) [nM] | GSPT1 levels in tumors (GSPT1 [3]) |
| --- | --- | --- | --- |
| Cc1c(Cl)cc(NC(=O)NCc2ccc3c(c2)C(=O)N(C2CCC(=O)NC2=O)C3)cc1CN1C2CCC1COC2 (centres unmarked) [Compound 138] | < 1100 | ≤ 100 |  |
| Cc1ccc(NC(=O)NCc2ccc3c(c2)C(=O)N(C2CCC(=O)NC2=O)C3)cc1Cl (centres unmarked) [Compound 8] | < 1100 | ≤ 100 | robust and dose-dependent degradation of GSPT1 levels in tumors |
